We go through 2 sequences from US8975371B2, “Melanoma antigen peptide and uses thereof” (INSERM (Institut National de la Sante et de la Recherche …, priority 2008, dated 2015).

Where two headings read alike, the source gives them in different places.

Common to all, as to assay type: cell-based, human
Experiment [1] deals with M170.51 CTL clone / peptide-pulsed T2 cells. Nature of the experiment: Cytotoxicity of M170.51 CTL clone against peptide-pulsed T2 cells (4 h 51Cr release). The following applies: peptide loaded on T2 cells. Here is the method: (§1) (A) Structure of meloe cDNA. Black boxes correspond to ORFs tested for recognition by the CTL clone. (B) M170.48 and M170.51 TNF responses to COS-7 cells (E/T ratio 1/3) transfected with indicated plasmids. T cell clone was added 2 days after the transfection and the CTL clone reactivity was assessed by a TNF release assay. (C) Amino acid sequences of the ORF 1230-1370 and the ORF 285-404 of meloe isolated from M134 cDNA library. (D and E) Cytotoxicity of M170.48 CTL clone (D) and M170.51 CTL clone(E) against peptide-pulsed T2 cells. Target cells were chromium labeled for 60 min and incubated for 30 min with a range of the indicated peptides. T cell clones were added at an E/T ratio of 10/1 and chromium release was then measured after a 4 h incubation period.
(§2) Cytotoxic activity of T cells was measured in a standard 4-h assay against ^51Cr-labeled cells (peptide-loaded T2 cells or tumor cell lines) (23). […] After staining, cells were resuspended in PBS and analyzed on a LSR flow cytometer using Cell Quest software. […]

Experiment [2] concerns M170.48 CTL clone / peptide-pulsed T2 cells. Nature of the experiment: Cytotoxicity of M170.48 CTL clone against peptide-pulsed T2 cells (4 h 51Cr release). The following applies: peptide loaded on T2 cells. Here is the method:
as §1, §2

Experiment [3] has as its system MELOE-1 specific T cell clones / peptide-loaded T2 cells. Nature of the experiment: Relative avidity of MELOE-1 specific T cell clones, 4-h 51Cr assay against peptide-loaded T2 cells. Here is the method:
Cytotoxicity of MELOE-1 specific CTL clones against peptide-pulsed T2 cells. Target cells were chromium labeled for 60 min and incubated for 30 min with a range of the MELOE-136-44 peptide. T cell clones derived from healthy donors (A), melanoma patients PBMC (B) and TIL (C) were added at an E/T ratio of 10/1 and chromium release was then measured after a 4 h incubation period. (D) Mean EC50 of the MELOE-1 specific T cell clones in response to the MELOE-136-44 peptide, according to their origin. EC50 were compared using statistical analysis done with InStat 2.01. Data were analyzed using Kruskal-Wallis comparison test. *p=0.019, considered significant.
The relative avidity of […] specific T cell clones and their anti-tumor reactivity was measured respectively in a standard 4-h assay against ^51Cr-labeled peptide-loaded T2 cells and towards HLA-A2 melanoma cell lines. Briefly, target cells (peptide pulsed-T2 or melanoma cells) were incubated with 100 μCi Na2^51CrO4 (Oris Industrie, Gif-sur-Yvette, France) at 37° C. for 1 h. For peptide recognition assays, T2 cells were preincubated with a range of […] peptide concentrations for 1 h at 37° C. […] Data were analyzed using Kruskal-Wallis comparison test, followed by Dunn'post test. […]

Take RCPPKPPLA: in experiment [1], the “recognition by M170.51 T cell clone” value was “recognized”. In addition, the EC50 in experiment [1] (M170.51 CTL clone, E/T ratio 10/1, 4 h chromium release, read-out: half maximal lysis (converted)) was 50 nM.
TLNDECWPA: in experiment [2], the “recognition by M170.48 T cell clone” value is listed as “recognized”. For the same sequence, the EC50 in experiment [2] (M170.48 CTL clone, E/T ratio 10/1, 4 h chromium release, read-out: half maximal lysis) was determined as 10 nM; in experiment [3] (healthy donor clonotype HD1.21, read-out: EC50 of clonotype HD1.21), 10 nM; in experiment [3] (healthy donor clonotype HD3.38, read-out: EC50 of clonotype HD3.38), 1 nM.
